In series [1] the test system is SARS-CoV-2. In words: microbe, parasite or virus in culture. It is filed as cell-based.
Series [2] concerns SARS-CoV-2. In words: Example 3: co-localization of SARS-CoV-2 virus particles with early endosomes or endolysosomes (immunofluorescence). It is filed as cell-based. Conditions: 50 µM drug, veroE6 cells, MOI of 10, 90 min at 37° C. The procedure: (at MOI of 10); • 3) the veroE6 cells were washed twice with PBS (purchased from Gibco, Catalog No. C10010500BT) to remove unbound virus particles, freshly pre-warmed MEM culture medium containing 2% FBS was added, and then the veroE6 cells were incubated at 37° C. for 90 min; • 4) the cells were fixed, and the immunofluorescence staining of cells was performed by using anti-virus NP protein antibody (red) (preserved by Wuhan Institute of Virology, Chinese Academy of Sciences) and anti-early endosomal protein EEA antibody (green) (purchased from Cell Signaling Technology, Catalog No. 48453) or anti-lysosomal protein LAMP antibody (green) (purchased from Cell Signaling Technology company, Catalog No. 3243); the nuclei were stained with Hoechst (blue) (purchased from Invitrogen company, Catalog No. H21492); • 5) quantitative analysis of co-localization of virus particles and endosomes of the cells in each group was performed, and co-localization rate was calculated.

The subject of the next series is Vero-E6 cells. Conditions: Example 1, all test concentrations.
A further series has as its system ZIKV. Conditions: pregnant mice, 40 mg/kg/day intraperitoneally from first day after ZIKV infection, compared to PBS; cited from earlier work.
The nature of another series: in vitro. Conditions: African green monkey.
The subject of another series is DENV-2. Conditions: cited from earlier work.
For series [3], the system named is Zika virus protease NS2B-NS3. Conditions: read-out: inhibitory constant Ki; cited from earlier work.

Data on 2 compounds can be found in patent US20230218606A1, “USE OF 4-AMINOQUINOLINE COMPOUND IN TREATMENT OF CORONAVIRUS INFECTION” (priority 2020, published 2023).

Where two headings read alike, the source gives them in different places.

Experimental for Vero-E6 cells: (§1) The cytotoxicity test of drugs was carried out by using CCK-8 kit (Beyotime). […] The original medium in the 96-well plate was discarded, 100 µL of the drug-containing MEM medium was taken and added to the cells, and three replicate wells were set for each concentration. A vehicle control (adding DMSO and medium to cells in wells, without adding drug) and a blank control (adding DMSO and medium to the wells, without cells) were set up. After the drug was added, the cells were incubated at 37° C. for 48 hours. • ③ 20 µL of CCK-8 solution (Beyotime) was added to the well to be tested, mixed gently without generating bubbles, and incubated subsequently at 37° C. for 2 hours. OD450 was read on a microplate reader (purchased from Molecular Devices, model: SpectraMax M5), and the reading was substituted into the following formula to calculate cell viability: • [formula] • Wherein, A was the reading of the microplate reader.
Experimental for in vitro: as §1

Regarding `CCN(CC)CCCC(C)Nc1ccnc2cc(Cl)ccc12` (stereo not drawn) [chloroquine phosphate], the “inhibition of replication of SARS-CoV-2 virus genome in the infected supernatant” value with SARS-CoV-2 [1] (Example 1, at 50 µM, 16.67 µM and 5.56 µM) is listed as “could effectively inhibit the replication”. Also, the EC50 in the series with SARS-CoV-2 [1] (Severe acute respiratory syndrome coronavirus 2, Vero C1008, 48 h, read-out: half-maximal effective concentration (EC50)) was 1.13 µM. Further, in the series with SARS-CoV-2 [2], the “co-localization rate of virus particles and early endosomes (EES)” value is 35.3%; the “co-localization rate of virus particles and endolysosomes (ELs)” value amounted to 2.4%. The “toxic effect on cells (cell viability)” value in the series with Vero-E6 cells is recorded as “no toxic effect on cells at all concentrations”.
For the compound `CCN(CCO)CCCC(C)Nc1ccnc2cc(Cl)ccc12` (stereo not drawn) [hydroxychloroquine, 2-[[4-[(7-chloroquinolin-4-yl)amino]pentyl]ethylamino]-ethanol], the “co-localization rate of virus particles and early endosomes (EES)” value in the series on SARS-CoV-2 [2] amounted to 29.2%. Also, in the series with SARS-CoV-2 [2], the “co-localization rate of virus particles and endolysosomes (ELs)” value is given as 0.03%. Moreover, in the series with ZIKV, the “level of ZIKV infection in placenta” value is “lower level of ZIKV infection”. Further, the CC50 at 48 h in “in vitro” is above 250 µM. The “reduction of DENV-2 virus titer” value in the series on DENV-2 (A549 cell line, 50 to 80 µM) is listed as 100 times. For the same compound, the IC50 (commonly the point on the concentration scale where inhibition reaches its midpoint) in the series on DENV-2 (A549 cells, read-out: IC50 for DENV-2 infected cells) is 10.1 ± 1.6 µM; in the series on DENV-2 (Hepa1-6 cells, read-out: IC50 for DENV-2 infected cells), 12.9 ± 4.2 µM; with DENV-2 (J774A.1 macrophages, read-out: IC50, inhibition of DENV-2 infection of macrophages), 9.7 ± 1.3 µM; in the series on DENV-2 (WS-1 cells, read-out: IC50 for DENV-2 infected cells), 12.9 ± 1.9 µM. The Ki (in general, the equilibrium dissociation constant of an inhibitor or competing ligand from its target) in series [3] is 92.3 ± 11.9 µM.
